# According to patent publication US20230293517A1, “ANTAGONIST COMPOUNDS” (AdoRx Therapeutics Limited, priority 2020, published 2023):
# What was measured:
# [1] = system: immature monocyte-derived dendritic cells (MoDC); test: MoDC pCREB assay; format: cell-based, human; conditions: Homo sapiens, Dendritic cell; pCREB in immature MoDC, 1 μM NECA, rolipram
# How it was run: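 Human CD14+ monocytes differentiated 5 days into immature MoDC, pre-incubated 15 min at 37 °C with antagonist plus rolipram, then stimulated with 1 μM NECA for 45 min at 37 °C. Phospho-CREB measured by flow cytometry in gated CD209+/CD86− low cells; IC50 from the inflection point of a sigmoidal curve.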
# [2] = system: CD8+T cells in human whole blood; test: Measurement of pCREB in CD8+T cells in human whole blood; format: cell-based; conditions: 3 μM NECA, rolipram
# How it was run: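 Heparinised human whole blood pre-incubated 20 min at 37 °C with serially diluted A2a antagonists plus rolipram, then stimulated 60 min with 3 μM NECA (final). After fixation and red-cell lysis, white cells were permeabilized and stained for phospho-CREB and CD8; pCREB in CD8+ T cells measured by flow cytometry.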
# [3] = biological target: human Adenosine A2a receptor (Homo sapiens (Human), UniProt P29274); test: Adenosine receptor TR-FRET binding assay (A2a); conditions: inhibition of binding of 100 nM CA200645, CHO cell membranes
# human Adenosine A2a receptor, sequence (P29274 whole entry): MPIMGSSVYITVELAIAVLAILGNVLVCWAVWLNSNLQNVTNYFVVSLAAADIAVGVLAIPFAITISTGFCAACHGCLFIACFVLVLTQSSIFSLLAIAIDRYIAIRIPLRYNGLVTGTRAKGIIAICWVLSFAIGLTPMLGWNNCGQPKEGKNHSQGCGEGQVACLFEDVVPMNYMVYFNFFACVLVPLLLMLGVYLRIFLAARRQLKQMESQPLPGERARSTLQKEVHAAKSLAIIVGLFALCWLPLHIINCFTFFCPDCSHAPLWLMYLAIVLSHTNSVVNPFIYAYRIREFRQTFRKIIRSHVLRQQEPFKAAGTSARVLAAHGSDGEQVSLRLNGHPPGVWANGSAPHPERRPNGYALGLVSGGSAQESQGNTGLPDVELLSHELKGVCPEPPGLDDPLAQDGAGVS
# How it was run: (§1)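 Competition binding measured by TR-FRET between terbium-labelled receptors (CHO membranes, human) and fluorescent XAC, CA200645, used at 30 nM for A2b and 100 nM elsewhere. Room temperature, 2 h. Reported as Ki (Cheng–Prusoff).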
# [4] = biological target: human Adenosine A3 receptor (Homo sapiens (Human), UniProt P0DMS8); test: Adenosine receptor TR-FRET binding assay (A3); conditions: inhibition of binding of 100 nM CA200645, CHO cell membranes
# human Adenosine A3 receptor, sequence (P0DMS8 whole entry): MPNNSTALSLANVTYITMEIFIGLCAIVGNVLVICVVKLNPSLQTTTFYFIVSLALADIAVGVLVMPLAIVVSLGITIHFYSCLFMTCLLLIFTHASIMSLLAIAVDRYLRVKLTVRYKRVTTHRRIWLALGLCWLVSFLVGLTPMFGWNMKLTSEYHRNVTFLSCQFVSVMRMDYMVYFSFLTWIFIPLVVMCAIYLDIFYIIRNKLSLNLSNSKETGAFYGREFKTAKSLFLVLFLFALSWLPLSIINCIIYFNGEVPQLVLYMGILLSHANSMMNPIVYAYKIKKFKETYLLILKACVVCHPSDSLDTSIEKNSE
# How it was run: as §1
# human PBMCs = test: CD3/CD28 stimulated IL-2 release NECA reversal assay in human PBMCs; format: cell-based; conditions: PBMC, 1 uM NECA, 24 hours, IL-2 in culture supernatant
# How it was run: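 PBMCs from citrated healthy-donor blood plated at 50,000 cells/well on 1 ug/ml CD3 antibody with 1 ug/ml CD28 antibody, 1 uM NECA and 0.003-10 μM antagonist (final), 24 h at 37° C. Supernatant IL-2 measured by MSD immunoassay; % inhibition set against no-NECA control wells as 100%.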
# [5] = biological target: human Adenosine A1 receptor (Homo sapiens (Human), UniProt P30542); test: Adenosine receptor TR-FRET binding assay (A1); conditions: inhibition of binding of 100 nM CA200645, CHO cell membranes
# human Adenosine A1 receptor, sequence (P30542 whole entry): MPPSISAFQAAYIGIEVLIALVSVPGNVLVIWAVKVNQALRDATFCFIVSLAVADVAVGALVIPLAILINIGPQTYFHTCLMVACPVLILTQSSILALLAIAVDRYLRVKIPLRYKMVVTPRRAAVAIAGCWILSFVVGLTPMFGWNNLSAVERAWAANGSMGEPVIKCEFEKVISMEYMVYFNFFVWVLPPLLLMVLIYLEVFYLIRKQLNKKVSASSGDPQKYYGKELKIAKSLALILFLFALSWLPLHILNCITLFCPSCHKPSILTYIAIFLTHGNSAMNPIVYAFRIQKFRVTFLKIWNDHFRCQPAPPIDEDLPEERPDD
# How it was run: as §1
# [6] = biological target: human Adenosine A2b receptor (Homo sapiens (Human), UniProt P29275); test: Adenosine receptor TR-FRET binding assay (A2b); conditions: TR-FRET, inhibition of binding of 30 nM CA200645, CHO cell membranes
# human Adenosine A2b receptor, sequence (P29275 whole entry): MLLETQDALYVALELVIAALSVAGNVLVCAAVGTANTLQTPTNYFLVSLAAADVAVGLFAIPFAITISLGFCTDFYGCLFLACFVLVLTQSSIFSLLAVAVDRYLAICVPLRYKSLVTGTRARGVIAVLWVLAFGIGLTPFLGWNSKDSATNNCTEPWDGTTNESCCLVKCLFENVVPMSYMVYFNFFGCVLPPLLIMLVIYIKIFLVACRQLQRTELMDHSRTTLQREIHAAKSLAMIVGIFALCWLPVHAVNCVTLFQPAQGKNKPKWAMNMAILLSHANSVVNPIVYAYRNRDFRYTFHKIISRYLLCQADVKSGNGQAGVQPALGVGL
# How it was run: as §1
SMILES,IC50 [1],IC50 [2],Ki [3],Ki [4],IC50 (human PBMCs),Ki [5],Ki [6]
"Cc1cc(-c2sc(NC(=O)N3CCC(C#N)CC3)nc2-c2cccc(C#N)c2)cc(C)n1 [Example 4.1, 4-Cyano-N-[4-(3-cyanophenyl)-5-(2,6-dimethyl-4-pyridyl)thiazol-2-yl]piperidine-1-carboxamide]",15 nM,10 nM,0.11 nM,145 nM,0.3 nM,11 nM,0.6 nM
"Cc1cc(-c2sc(NC(=O)N3CCOC[C@H]3C)nc2-c2cccc(C#N)c2)cc(C)n1 [Example 6.74, (3R)-N-[4-(3-Cyanophenyl)-5-(2,6-dimethyl-4-pyridyl)thiazol-2-yl]-3-methyl-morpholine-4-carboxamide]",1 nM,240 nM,0.63 nM,219 nM,5.6 nM,23 nM,1.9 nM
"Cc1cc(-c2sc(NC(=O)N3CC4(CCOC4)C3)nc2-c2cccc(C#N)c2)cc(C)n1 [Example 6.53, N-[4-(3-Cyanophenyl)-5-(2,6-dimethyl-4-pyridyl)thiazol-2-yl]-6-oxa-2-azaspiro[3.4]octane-2-carboxamide]",40 nM,130 nM,0.27 nM,662 nM,2.5 nM,110 nM,1.6 nM
"Cc1cc(-c2sc(NC(=O)N3CCC(C)(C#N)CC3)nc2-c2cccc(C#N)c2)cc(CO)n1 [Example 24, 4-Cyano-N-[4-(3-cyanophenyl)-5-[2-(hydroxymethyl)-6-methyl-4-pyridyl]thiazol-2-yl]-4-methyl-piperidine-1-carboxamide]",21 nM,20 nM,0.24 nM,683 nM,1.6 nM,71 nM,2.7 nM
"Cc1cc(-c2sc(NC(=O)N3CC[S+]([O-])CC3)nc2-c2cccc(C#N)c2)cc(C)n1 [Example 4.24, N-[4-(3-Cyanophenyl)-5-(2,6-dimethyl-4-pyridyl)thiazol-2-yl]-1-oxo-1,4-thiazinane-4-carboxamide]",79 nM,80 nM,0.18 nM,383 nM,2.8 nM,15 nM,2.4 nM
"[2H]C([2H])([2H])c1cc(-c2sc(NC(=O)N3CCC(C)(C#N)CC3)nc2-c2cccc(C#N)c2)cc(C([2H])([2H])[2H])n1 [Example 28, N-[5-[2,6-Bis(trideuteriomethyl)-4-pyridyl]-4-(3-cyanophenyl)thiazol-2-yl]-4-cyano-4-methyl-piperidine-1-carboxamide]",9 nM,60 nM,0.09 nM,381 nM,0.4 nM,30 nM,1 nM
"Cc1cc(-c2sc(NC(=O)N3CC4(CCN(C)C4=O)C3)nc2-c2cccc(C#N)c2)cc(C)n1 [Example 6.92, N-[4-(3-Cyanophenyl)-5-(2,6-dimethyl-4-pyridyl)thiazol-2-yl]-6-methyl-5-oxo-2,6-diazaspiro[3.4]octane-2-carboxamide]",11 nM,30 nM,0.39 nM,98 nM,1.2 nM,66 nM,2.6 nM
"Cc1cc(-c2sc(NC(=O)N3CC4(COC4)C3)nc2-c2cccc(C#N)c2)cc(C)n1 [Example 4.12, N-[4-(3-Cyanophenyl)-5-(2,6-dimethyl-4-pyridyl)thiazol-2-yl]-2-oxa-6-azaspiro[3.3]heptane-6-carboxamide]",18 nM,50 nM,0.26 nM,389 nM,2 nM,31 nM,1.1 nM
Cc1cc(-c2sc(NC(=O)N3CCC(C)(C#N)CC3)nc2-c2cccc(C#N)c2)cc(Cl)n1 [Example 3.8],11 nM,750 nM,0.09 nM,538 nM,1 nM,116 nM,0.9 nM
"Cc1cc(-c2sc(NC(=O)N3CC[C@](C)(C#N)C3)nc2-c2cccc(C#N)c2)cc(C)n1 [Example 27b, (3S)-3-cyano-N-[4-(3-cyanophenyl)-5-(2,6-dimethyl-4-pyridyl)thiazol-2-yl]-3-methyl-pyrrolidine-1-carboxamide]",4 nM,40 nM,0.14 nM,271 nM,1 nM,33 nM,1 nM
"Cc1cc(-c2sc(NC(=O)N3CCC(C#N)(CO)CC3)nc2-c2cccc(C#N)c2)cc(C)n1 [Example 4.23, 4-Cyano-N-[4-(3-cyanophenyl)-5-(2,6-dimethyl-4-pyridyl)thiazol-2-yl]-4-(hydroxymethyl)piperidine-1-carboxamide]",20 nM,30 nM,0.2 nM,267 nM,0.6 nM,54 nM,0.7 nM
"Cc1cc(-c2sc(NC(=O)N3CCN(C4COC4)CC3)nc2-c2cccc(C#N)c2)cc(C)n1 [Example 4.4, N-[4-(3-Cyanophenyl)-5-(2,6-dimethyl-4-pyridyl)thiazol-2-yl]-4-(oxetan-3-yl)piperazine-1-carboxamide]",95 nM,170 nM,0.86 nM,568 nM,6.2 nM,263 nM,4.5 nM
"Cc1cc(-c2sc(NC(=O)N3CCC4(COC4)C3)nc2-c2cccc(C#N)c2)cc(C)n1 [Example 6.81, N-[4-(3-Cyanophenyl)-5-(2,6-dimethyl-4-pyridyl)thiazol-2-yl]-2-oxa-7-azaspiro[3.4]octane-7-carboxamide]",19 nM,230 nM,0.47 nM,292 nM,7.6 nM,49 nM,2.3 nM
"COC1(C#N)CCN(C(=O)Nc2nc(-c3cccc(C#N)c3)c(-c3cc(C)nc(C)c3)s2)CC1 [Example 4.22, 4-Cyano-N-[4-(3-cyanophenyl)-5-(2,6-dimethyl-4-pyridyl)thiazol-2-yl]-4-methoxy-piperidine-1-carboxamide]",11 nM,110 nM,0.1 nM,165 nM,1.1 nM,35 nM,0.9 nM
"Cc1cc(-c2sc(NC(=O)N3CC(C)(O)C3)nc2-c2cccc(C#N)c2)cc(C)n1 [Example 4.9, N-[4-(3-Cyanophenyl)-5-(2,6-dimethyl-4-pyridyl)thiazol-2-yl]-3-hydroxy-3-methyl-azetidine-1-carboxamide]",26 nM,50 nM,0.14 nM,133 nM,3.2 nM,9 nM,1.5 nM
"Cc1cc(-c2sc(NC(=O)N3CCC4(CC3)NC(=O)N(C)C4=O)nc2-c2cccc(C#N)c2)cc(C)n1 [Example 6.6, N-[4-(3-Cyanophenyl)-5-(2,6-dimethyl-4-pyridyl)thiazol-2-yl]-3-methyl-2,4-dioxo-1,3,8-triazaspiro[4.5]decane-8-carboxamide]",24 nM,600 nM,1.44 nM,233 nM,8.2 nM,81 nM,1.3 nM
"Cc1cc(-c2sc(NC(=O)N3CC4(C3)CS(=O)(=O)C4)nc2-c2cccc(C#N)c2)cc(C)n1 [Example 6.46, N-[4-(3-Cyanophenyl)-5-(2,6-dimethyl-4-pyridyl)thiazol-2-yl]-2,2-dioxo-2λ^∧{6}-thia-6-azaspiro[3.3]heptane-6-carboxamide]",38 nM,360 nM,2.06 nM,235 nM,15.1 nM,113 nM,1.9 nM
"Cc1cc(-c2sc(NC(=O)N3CC4(CCO4)C3)nc2-c2cccc(C#N)c2)cc(C)n1 [Example 6.93, N-[4-(3-Cyanophenyl)-5-(2,6-dimethyl-4-pyridyl)thiazol-2-yl]-1-oxa-6-azaspiro[3.3]heptane-6-carboxamide]",9 nM,50 nM,0.31 nM,161 nM,1.3 nM,44 nM,1.5 nM
"Cc1cc(-c2sc(NC(=O)N3CCC(C#N)(C#N)CC3)nc2-c2cccc(C#N)c2)cc(C)n1 [Example 4.32, 4,4-Dicyano-N-[4-(3-cyanophenyl)-5-(2,6-dimethyl-4-pyridyl)thiazol-2-yl]piperidine-1-carboxamide]",14 nM,60 nM,0.15 nM,457 nM,0.7 nM,26 nM,1.1 nM
